Measured values taken from patent US9505742B2, “3,4-dihydro-2H-isoquinoline-1-one and 2,3-dihydro-isoindol-1-one compounds” (Hoffmann-La Roche Inc., priority 2013, dated 2016).

Legend:
[1] = target: T1, human CYP11B1 (Homo sapiens, UniProt P15538); experiment: G-402 cellular enzyme assay, human CYP11B1 (cortisol release, HTRF); assay type: cell-based; details: G-402 cells expressing human CYP11B1; 1 μM Deoxycortisol
T1 construct: The expression plasmids contains the ORF for either human/cyno CYP11B1 or CYP11B2; expressed in transfected cells
T1 sequence (P15538 25-503): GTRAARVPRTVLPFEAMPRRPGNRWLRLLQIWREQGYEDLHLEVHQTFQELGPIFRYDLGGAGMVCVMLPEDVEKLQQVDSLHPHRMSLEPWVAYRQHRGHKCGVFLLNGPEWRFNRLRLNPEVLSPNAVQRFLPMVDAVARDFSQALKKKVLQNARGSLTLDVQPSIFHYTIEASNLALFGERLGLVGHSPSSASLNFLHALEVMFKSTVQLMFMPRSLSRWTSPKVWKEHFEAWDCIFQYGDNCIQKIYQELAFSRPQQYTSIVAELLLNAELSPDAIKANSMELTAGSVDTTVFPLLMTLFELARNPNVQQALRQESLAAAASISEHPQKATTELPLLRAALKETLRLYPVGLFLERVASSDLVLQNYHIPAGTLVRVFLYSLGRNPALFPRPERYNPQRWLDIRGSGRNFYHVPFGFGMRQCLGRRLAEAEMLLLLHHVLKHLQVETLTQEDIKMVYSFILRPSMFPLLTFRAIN
Source text: (§1) Herein we identified the use of the G-402 cell line as a host cell to ectopically express (transiently or stably) enzymes of the CYP11 family. Specifically we developed stable G-402 cells expressing ectopically human CYP11B1, human CYP11B2, human CYP11A1, cynmolgus CYP11B1 or cynomolgus CYP11B2 enzyme activity. Importantly the identified cell line G-402 expresses co-factors (adrenodoxin and adrenodoxin reductase) important for the activity of the CYP11 family and no relevant enzyme activity of the CYP11 family (in comparison to H295R cells) was detected in these cells. Therefore the G-402 cell line is uniquely suited as a host cell for the ectopic expression of enzymes from the CYP11 family. G-402 cells can be obtained from ATCC (CRL-1440) and were originally derived from a renal leiomyoblastoma.
(§2) The expression plasmids contains the ORF for either human/cyno CYP11B1 or CYP11B2 under the control of a suitable promoter (CMV-promoter) and a suitable resistance marker (neomycin). Using standard techniques the expression plasmid is transfected into G-402 cells and these cells are then selected for expressing the given resistance markers. Individual cell-clones are then selected and assessed for displaying the desired enzymatic activity using 11-Deoxycorticosterone (Cyp11B2) or 11-Deoxycortisol (Cyp11B) as a substrate.
(§3) G-402 cells expressing CYP11 constructs were established as described above and maintained in McCoy's 5a Medium Modified, ATCC Catalog No. 30-2007 containing 10% FCS and 400 μg/ml G418 (Geneticin) at 37° C. under an atmosphere of 5% CO2/95% air. Cellular enzyme assays were performed in DMEM/F12 medium containing 2.5% charcoal treated FCS and appropriate concentration of substrate (0.3-10 uM 11-Deoxycorticosterone, 11-Deoxycortisol or Corticosterone). For assaying enzymatic activity, cells were plated onto 96 well plates and incubated for 16 h. An aliquot of the supernatant is then transferred and analyzed for the concentration of the expected product (Aldosterone for CYP11B2; Cortisol for CYP11B1). The concentrations of these steroids can be determined using HTRF assays from CisBio analyzing either Aldosterone or Cortisol.
(§4) Inhibition of the release of produced steroids can be used as a measure of the respective enzyme inhibition by test compounds added during the cellular enzyme assay. The dose dependent inhibition of enzymatic activity by a compound is calculated by means of plotting added inhibitor concentrations (x-axes) vs. measured steroid/product level (y-axes). The inhibition is then calculated by fitting the following 4-parameter sigmoidal function (Morgan-Mercer-Flodin (MMF) model) to the raw data points using the least squares method:
(§5) [formula] wherein, A is the maximum y value, B is the EC50 factor determined using XLFit, C is the minimum y value and D is the slope value.
(§6) EC50 values for compounds claimed herein were tested with the G402-based assay system described. Cyp11B2 enzyme activity was tested in presence of 1 μM Deoxycorticosterone and variable amounts of inhibitors; Cyp11B1 enzyme activity was tested in presence of 1 μM Deoxycortisol and variable amounts of inhibitors.

[2] = target: T2, human CYP11B2 (Homo sapiens, UniProt P19099); experiment: G-402 cellular enzyme assay, human CYP11B2 (aldosterone release, HTRF); assay type: cell-based; details: G-402 cells expressing human CYP11B2; 1 μM Deoxycorticosterone
T2 construct: The expression plasmids contains the ORF for either human/cyno CYP11B1 or CYP11B2; expressed in transfected cells
T2 sequence (P19099 25-503): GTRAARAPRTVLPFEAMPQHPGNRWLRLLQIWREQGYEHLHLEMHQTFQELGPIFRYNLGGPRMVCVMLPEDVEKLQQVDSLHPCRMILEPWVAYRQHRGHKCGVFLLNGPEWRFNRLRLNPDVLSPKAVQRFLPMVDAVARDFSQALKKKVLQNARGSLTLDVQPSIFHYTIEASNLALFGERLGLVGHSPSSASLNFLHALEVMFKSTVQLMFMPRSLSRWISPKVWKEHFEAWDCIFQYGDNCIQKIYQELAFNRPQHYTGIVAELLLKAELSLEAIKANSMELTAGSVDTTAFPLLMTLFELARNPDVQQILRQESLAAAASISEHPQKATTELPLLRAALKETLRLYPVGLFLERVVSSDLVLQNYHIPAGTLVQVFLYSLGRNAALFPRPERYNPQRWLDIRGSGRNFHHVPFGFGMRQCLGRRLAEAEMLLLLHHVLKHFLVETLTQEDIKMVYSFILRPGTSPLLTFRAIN
Source text: as §1, §2, §3, §4, §5, §6

[3] = rat CKD model, cited from earlier work; for plasma aldosterone: FAD286 4 weeks, spironolactone 4 and 8 weeks of treatment
[4] = rats with experimental heart failure; cited from earlier work
[5] = target: CYP11B2 (Homo sapiens, UniProt P19099); details: patients with primary aldosteronism, cited from earlier work

| SMILES | EC50 [1] [nM] | EC50 [2] [nM] | other results |
| --- | --- | --- | --- |
| CCCS(=O)(=O)N1CC(c2cncc(N3C(=O)c4ccc(Cl)cc4C3(C)C)c2)C1 [Example 34, 5-Chloro-3,3-dimethyl-2-[5-(1-propylsulfonylazetidin-3-yl)pyridin-3-yl]isoindol-1-one] | 492 | 13 | – |
| Cc1ccncc1C(=O)N1CC(c2cncc(N3C(=O)c4ccc(Cl)cc4C3(C)C)c2)C1 [Example 36, 5-Chloro-3,3-dimethyl-2-[5-[1-(4-methylpyridine-3-carbonyl)azetidin-3-yl]pyridin-3-yl]isoindol-1-one] | 1400 | 18 | – |
| CC(C)S(=O)(=O)N1CCC(F)(c2cncc(N3C(=O)c4ccc(C#N)cc4C3(C)C)c2)CC1 [Example 39, 2-[5-(4-Fluoro-1-isopropylsulfonyl-4-piperidyl)-3-pyridyl]-3,3-dimethyl-1-oxo-isoindoline-5-carbonitrile] | 1850 | 9 | – |
| COc1ccc2c(n1)C(C)(C)N(c1cncc(C3(F)CCN(S(=O)(=O)C(C)C)CC3)c1)C2=O [Example 42, 6-[5-(4-Fluoro-1-isopropylsulfonyl-4-piperidyl)-3-pyridyl]-2-methoxy-7,7-dimethyl-pyrrolo[3,4-b]pyridin-5-one] | 8070 | 34 | – |
| COc1ccc2c(n1)C(C)(C)N(c1cncc(C3(F)CCN(C(=O)c4nccn4C)CC3)c1)C2=O [Example 44, 6-[5-[4-Fluoro-1-(1-methylimidazole-2-carbonyl)-4-piperidyl]-3-pyridyl]-2-methoxy-7,7-dimethyl-pyrrolo[3,4-b]pyridin-5-one] | 8 | 4 | – |
| CCS(=O)(=O)N1CCC(c2cncc(N3C(=O)c4ccc(OC)nc4C3(C)C)c2)CC1 [Example 46, 6-[5-(1-Ethylsulfonyl-4-piperidyl)-3-pyridyl]-2-methoxy-7,7-dimethyl-pyrrolo[3,4-b]pyridin-5-one] | 1920 | 23 | – |
| N#Cc1ccc(C2CCCc3cncn32)cc1 (stereo not drawn) [FAD286] | – | – | plasma aldosterone [3]: reduced; angiotensin II and salt-stimulated PAI-1 mRNA expression in the aorta and the heart [3]: not; renal effects of angiotensin II and high salt (albuminuria, azotemia, renovascular hypertrophy, glomerular injury, PAI-1 and osteopontin mRNA, tubulointerstitial fibrosis) [3]: prevented these renal effects; blood pressure and cardiovascular function and structure [4]: improved; kidney function and morphology [4]: improve |
| N#Cc1ccc([C@H]2CCc3cncn32)c(F)c1 [LCI699] | – | – | circulating aldosterone levels ([5]; oral): significantly lower; blood pressure [5]: mildly decreased; hypokalemia [5]: corrected; selectivity / effects on the glucocorticoid axis [5]: poor selectivity |
| CC(=O)S[C@@H]1CC2=CC(=O)CC[C@]2(C)[C@H]2CC[C@@]3(C)[C@@H](CC[C@@]34CCC(=O)O4)[C@H]12 [spironolactone] | – | – | plasma aldosterone [3]: increased; angiotensin II and salt-stimulated PAI-1 mRNA expression in the aorta and the heart [3]: enhanced; renal effects of angiotensin II and high salt (albuminuria, azotemia, renovascular hypertrophy, glomerular injury, PAI-1 and osteopontin mRNA, tubulointerstitial fibrosis) [3]: prevented these renal effects |

Further molecules by falling EC50 [1], results first:

| EC50 [1] [nM] | EC50 [2] [nM] | SMILES | other results |
| --- | --- | --- | --- |
| 2420 | 19 | CCS(=O)(=O)N1CCC(F)(c2cncc(N3C(=O)c4ccc(OC)nc4C3(C)C)c2)CC1 [Example 40, 6-[5-(1-Ethylsulfonyl-4-fluoro-4-piperidyl)-3-pyridyl]-2-methoxy-7,7-dimethyl-pyrrolo[3,4-b]pyridin-5-one] | – |
| 1900 | 21 | CCCS(=O)(=O)N1CCC(F)(c2cncc(N3C(=O)c4ccc(OC)nc4C3(C)C)c2)CC1 [Example 43, 6-[5-(4-Fluoro-1-propylsulfonyl-4-piperidyl)-3-pyridyl]-2-methoxy-7,7-dimethyl-pyrrolo[3,4-b]pyridin-5-one] | – |
| 1320 | 151 | COc1ccc2c(n1)C(C)(C)N(c1cncc(C3CCN(C(=O)c4cnccc4C)CC3)c1)C2=O [Example 49, 2-Methoxy-7,7-dimethyl-6-[5-[1-(4-methylpyridine-3-carbonyl)-4-piperidyl]-3-pyridyl]pyrrolo[3,4-b]pyridin-5-one] | – |
| 1250 | 30 | COc1ccc2c(n1)C(C)(C)N(c1cncc(C3(F)CCN(S(=O)(=O)C4CC4)CC3)c1)C2=O [Example 45, 6-[5-(1-Cyclopropylsulfonyl-4-fluoro-4-piperidyl)-3-pyridyl]-2-methoxy-7,7-dimethyl-pyrrolo[3,4-b]pyridin-5-one] | – |
| 986 | 35 | COc1ccc2c(n1)C(C)(C)N(c1cncc(C3(F)CCN(C(=O)c4cnn(C)c4)CC3)c1)C2=O [Example 41, 6-[5-[4-Fluoro-1-(1-methylpyrazole-4-carbonyl)-4-piperidyl]-3-pyridyl]-2-methoxy-7,7-dimethyl-pyrrolo[3,4-b]pyridin-5-one] | – |
| 575 | 1 | CC1(C)c2cc(Cl)ccc2C(=O)N1c1cncc(C2(F)CCN(S(=O)(=O)C3CC3)CC2)c1 [Example 38, 5-Chloro-2-[5-(1-cyclopropylsulfonyl-4-fluoro-4-piperidyl)-3-pyridyl]-3,3-dimethyl-isoindolin-1-one] | – |
| 573 | 41 | COc1ccc2c(n1)C(C)(C)N(c1cncc(C3CCN(C(=O)c4cnn(C)c4)CC3)c1)C2=O [Example 47, 2-Methoxy-7,7-dimethyl-6-[5-[1-(1-methylpyrazole-4-carbonyl)-4-piperidyl]-3-pyridyl]pyrrolo[3,4-b]pyridin-5-one] | – |
| 325 | 8 | CC1(C)c2cc(Cl)ccc2C(=O)N1c1cncc(C2CN(S(=O)(=O)C3CC3)C2)c1 [Example 35, 5-Chloro-2-[5-(1-cyclopropylsulfonylazetidin-3-yl)pyridin-3-yl]-3,3-dimethylisoindol-1-one] | – |
| 98 | 2 | CCCS(=O)(=O)N1CCC(F)(c2cncc(N3C(=O)c4ccc(Cl)cc4C3(C)C)c2)CC1 [Example 37, 5-Chloro-2-[5-(4-fluoro-1-propylsulfonyl-4-piperidyl)-3-pyridyl]-3,3-dimethyl-isoindolin-1-one] | – |
